From patent US12365655B2, “Compounds” (CTXT PTY LTD, priority 2018, dated 2025) come the findings set out here.

The target in one assay is HBO-KAT7 (Homo sapiens, UniProt O95251). In words: Acetyltransferase biochemical assay (AlphaScreen), KAT7. In general terms: Alpha assays give light when donor and acceptor beads are brought close together.
A further assay addresses MOZ-KAT6A (Homo sapiens, UniProt Q92794, A567V). In words: Acetyltransferase biochemical assay (AlphaScreen), KAT6A.
The next assay concerns the target TIP60-KAT5 (Homo sapiens, UniProt Q92993). As to the kind of experiment: Acetyltransferase biochemical assay (AlphaScreen), KAT5.
Assay [1] deals with acetylation of the histone H3 Lysine 14 marker in U2OS cells. As to the kind of experiment: Histone H3 Lysine 14 Acetylation Biomarker Assay. Conditions: Homo sapiens, serum free medium, 24 hours incubation, read-out: IC50, inhibition of histone H3 Lysine 14 acetylation. The class given is cell-based. As for the experimental part: Compounds were tested for their ability to inhibit acetylation of the histone H3 Lysine 14 marker in the following assay:
The cell line U2OS was seeded at a density of 3,000 cells per well in 384-well optical quality tissue culture plates in RPMI medium supplemented with 10% foetal bovine serum and 10 mM Hepes. The cells were allowed to adhere for 24 hours under standard culture conditions (37 degree Celsius, 5% CO2). At the end of this period the cells were washed with serum free medium. […] After incubation for 24 hours, the cells were fixed with 4% formaldehyde in PBS for 15 minutes at room temperature, washed with phosphate buffer saline and blocked with blocking buffer containing 0.2% TritonX100 and 2% BSA. Anti-H3K14ac specific antibody (Cell Signalling Technologies) in blocking buffer was added and incubated overnight at 4 degree Celsius. After washing, a secondary antibody labelled with AlexaFluor 488 dye (ThermoFisher) and Hoechst 33342 (1 μg/mL, Life Technologies) were added for 2 hours incubation at room temperature. Plates were washed and read on a PerkinElmer Opera HCS high content imaging platform. Using a Columbus image analysis pipeline, individual nuclei were located by Hoechst 33342 stain and the acetylation level was calculated from the AlexaFluor 488-related intensity in the same area.

Assay [2] relates to histone H2A.Z Lysine 7 acetylation marker in U2OS cells. In words: H2A.Z Lysine 7 Acetylation Biomarker Assay. The class given is cell-based. Conditions: Homo sapiens, serum free medium, 24 hours incubation, read-out: IC50, inhibition of histone H2A.Z Lysine 7 acetylation. As for the experimental part:
Compounds were tested for their ability to inhibit the histone H2A.Z Lysine 7 acetylation marker in the following assay:
The cell line U2OS was seeded at a density of 3,000 cells per well in 384-well optical quality tissue culture plates in RPMI medium supplemented with 10% foetal bovine serum and 10 mM Hepes. The cells were allowed to adhere for 24 hours under standard culture conditions (37 degree Celsius, 5% CO2). At the end of this period the cells were washed with serum free medium. […] 2018, at 30 μM concentration. After incubation for 24 hours, the cells were fixed with 4% formaldehyde in PBS for 15 minutes at room temperature, washed with phosphate buffer saline and blocked with blocking buffer containing 0.2% TritonX100 and 2% BSA. Anti-H2A.ZK7ac specific antibody (Abcam) in blocking buffer was added and incubated overnight at 4 degree Celsius. After washing, a secondary antibody labelled with AlexaFluor 488 dye (ThermoFisher) and Hoechst 33342 (1 μg/mL, Life Technologies) were added for 2 hours incubation at room temperature. Plates were washed and read on a PerkinElmer Opera HCS high content imaging platform. Using a Columbus image analysis pipeline, individual nuclei were located by Hoechst 33342 stain and the acetylation level was calculated from the AlexaFluor 488-related intensity in the same area.

The target of another assay is T1, MOF-KAT8 (Homo sapiens, UniProt Q9H7Z6).
T1 sequence (Q9H7Z6 with tags, fused parts or gaps): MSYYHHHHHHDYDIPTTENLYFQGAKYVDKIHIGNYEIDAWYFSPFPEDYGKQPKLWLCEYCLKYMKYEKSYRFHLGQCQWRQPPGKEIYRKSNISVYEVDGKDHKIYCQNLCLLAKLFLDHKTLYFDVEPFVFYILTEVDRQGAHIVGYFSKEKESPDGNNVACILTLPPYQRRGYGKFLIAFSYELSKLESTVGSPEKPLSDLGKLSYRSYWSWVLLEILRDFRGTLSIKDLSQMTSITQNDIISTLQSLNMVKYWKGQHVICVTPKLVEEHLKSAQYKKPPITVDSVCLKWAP
In words: biochemical.

MOZ-KAT6A, sequence (Q92794 with tags, fused parts or gaps A567V): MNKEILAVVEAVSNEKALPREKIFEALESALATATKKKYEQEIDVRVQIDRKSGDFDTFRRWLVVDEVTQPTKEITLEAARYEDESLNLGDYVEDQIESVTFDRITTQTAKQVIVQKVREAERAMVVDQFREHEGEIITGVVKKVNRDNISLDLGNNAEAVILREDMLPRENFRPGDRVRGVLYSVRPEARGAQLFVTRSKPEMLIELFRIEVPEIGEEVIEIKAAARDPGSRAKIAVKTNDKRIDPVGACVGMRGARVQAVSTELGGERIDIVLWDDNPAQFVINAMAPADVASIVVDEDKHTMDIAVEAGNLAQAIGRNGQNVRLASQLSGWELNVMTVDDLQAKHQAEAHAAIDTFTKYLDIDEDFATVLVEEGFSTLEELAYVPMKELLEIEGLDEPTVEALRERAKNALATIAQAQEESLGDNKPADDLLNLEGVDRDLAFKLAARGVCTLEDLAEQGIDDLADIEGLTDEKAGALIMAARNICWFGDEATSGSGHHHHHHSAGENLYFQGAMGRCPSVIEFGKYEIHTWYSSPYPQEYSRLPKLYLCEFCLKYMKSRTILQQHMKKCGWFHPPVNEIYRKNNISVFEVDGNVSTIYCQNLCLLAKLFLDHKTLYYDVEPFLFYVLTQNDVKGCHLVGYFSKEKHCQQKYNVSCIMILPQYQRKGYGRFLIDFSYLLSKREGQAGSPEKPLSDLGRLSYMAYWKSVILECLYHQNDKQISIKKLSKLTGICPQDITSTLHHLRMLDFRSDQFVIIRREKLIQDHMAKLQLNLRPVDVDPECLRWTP
HBO-KAT7, sequence (O95251 with tags, fused parts or gaps): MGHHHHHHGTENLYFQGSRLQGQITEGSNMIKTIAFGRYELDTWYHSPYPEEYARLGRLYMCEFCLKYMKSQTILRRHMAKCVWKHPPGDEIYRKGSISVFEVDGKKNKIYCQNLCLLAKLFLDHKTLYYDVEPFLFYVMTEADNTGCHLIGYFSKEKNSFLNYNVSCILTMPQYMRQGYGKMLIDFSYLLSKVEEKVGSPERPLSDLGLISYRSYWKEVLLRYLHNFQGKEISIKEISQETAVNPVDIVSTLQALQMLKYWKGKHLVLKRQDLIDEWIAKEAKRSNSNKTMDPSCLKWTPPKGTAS
TIP60-KAT5, sequence (Q92993 with tags, fused parts or gaps isoform Q92993-2): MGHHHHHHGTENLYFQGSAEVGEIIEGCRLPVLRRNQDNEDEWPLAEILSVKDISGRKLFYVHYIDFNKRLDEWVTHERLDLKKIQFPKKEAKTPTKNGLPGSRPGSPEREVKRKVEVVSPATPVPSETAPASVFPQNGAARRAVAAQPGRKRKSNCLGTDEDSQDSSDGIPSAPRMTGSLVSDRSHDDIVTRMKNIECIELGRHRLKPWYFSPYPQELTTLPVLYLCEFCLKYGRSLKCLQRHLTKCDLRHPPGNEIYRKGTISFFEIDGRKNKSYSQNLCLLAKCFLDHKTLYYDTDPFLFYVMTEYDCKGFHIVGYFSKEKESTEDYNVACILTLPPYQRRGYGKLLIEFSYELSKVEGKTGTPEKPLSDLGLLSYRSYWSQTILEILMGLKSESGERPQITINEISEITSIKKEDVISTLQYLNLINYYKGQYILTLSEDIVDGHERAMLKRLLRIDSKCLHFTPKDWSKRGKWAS

Turning to `COc1ccc(S(=O)(=O)Nc2noc3cccc(OC)c23)c2ncccc12` [Example 74, 5-methoxy-N-(4-methoxybenzo[d]isoxazol-3-yl) quinoline-8-sulfonamide], the IC50 was determined as 1.66 µM against HBO-KAT7, 3.91 µM at MOZ-KAT6A, 8.13 µM against TIP60-KAT5 and 31.7 µM in assay [1].
For `COc1ccnc2c(S(=O)(=O)Nc3noc4cccc(OC)c34)cccc12` [Example 75, 4-methoxy-N-(4-methoxybenzo[d]isoxazol-3-yl)quinoline-8-sulfonamide] the same measures were 5.75 µM, 23.5 µM, 33.5 µM and over 40 µM.
For the molecule `COc1cccc2onc(NS(=O)(=O)c3cccc4ccc(C)nc34)c12` [Example 80, N-(4-methoxybenzo[d]isoxazol-3-yl)-2-methyl quinoline-8-sulfonamide], the IC50 against HBO-KAT7 worked out at 1.13 µM; against MOZ-KAT6A it was 3.47 µM; against TIP60-KAT5, 10.9 µM; in assay [1], 11.5 µM.
`COc1cccc2onc(NS(=O)(=O)c3cccc4c3OCCC4)c12` [Example 82, N-(4-methoxybenzo[d]isoxazol-3-yl)chromane-8-sulfonamide]: the IC50 against HBO-KAT7 worked out at 1.5 µM; on MOZ-KAT6A, 6.13 µM; against TIP60-KAT5 it was 8.25 µM; in assay [1] it was 12.6 µM.
For the molecule `COc1cccc(OC)c1S(=O)(=O)Nc1noc2cc(Br)cc(OC)c12` [Example 89], the IC50 on HBO-KAT7 was determined as 0.168 µM; against MOZ-KAT6A, 0.285 µM; at TIP60-KAT5 it was 5.79 µM; in assay [2], 19.8 µM; in assay [1], 3.96 µM.
Take `COCc1cc(OC)c2c(NS(=O)(=O)c3c(O)cccc3OC)noc2c1` [Example 163, 2-hydroxy-6-methoxy-N-(4-methoxy-6-(methoxymethyl)benzo[d]isoxazol-3-yl)benzenesulfonamide]: the IC50 on MOF-KAT8 is over 125 µM; at HBO-KAT7 it was 13.1 µM; against MOZ-KAT6A, 0.884 µM; at TIP60-KAT5, over 125 µM; in assay [1], 20.4 µM.
Consider `COc1ccc(S(=O)(=O)Nc2noc3cc(C(N)=O)c(C)cc23)c2ncccc12` [Example 168, 3-((5-methoxyquinoline)-8-sulfonamido)-5-methylbenzo[d]isoxazole-6-carboxamide], for which the IC50 on MOF-KAT8 is 6.46 µM; on HBO-KAT7, 36.4 µM; against MOZ-KAT6A it was 10 µM; against TIP60-KAT5, 3.42 µM; in assay [2], over 40 µM.
Take `COc1ccc(S(=O)(=O)Nc2noc3ccc(C)cc23)c(OC)c1` [Example 170, 2,4-dimethoxy-N-(5-methylbenzo[d]isoxazol-3-yl)benzenesulfonamide]: the IC50 is 9.67 µM on MOF-KAT8, 0.982 µM against HBO-KAT7, 1.5 µM at MOZ-KAT6A and 4.83 µM on TIP60-KAT5.
With `COc1ccc(S(=O)(=O)Nc2noc3cc(Br)c(C)cc23)c(OC)c1` [Example 171], the IC50 came to 0.292 µM at HBO-KAT7, 1.88 µM at MOZ-KAT6A, 4.37 µM on TIP60-KAT5 and 2.57 µM in assay [1].
Consider `CCc1ccc2onc(NS(=O)(=O)c3cc4c(cc3OC)CCCC4)c2c1` [Example 204, N-(5-Ethylbenzo[d]isoxazol-3-yl)-3-methoxy-5,6,7,8-tetrahydronaphthalene-2-sulfonamide], for which the IC50 on MOF-KAT8 came to 3.06 µM; at HBO-KAT7 it was 3.05 µM; against MOZ-KAT6A it was 0.4 µM; against TIP60-KAT5, 4.57 µM.
For `COc1cc2c(cc1S(=O)(=O)Nc1noc3ccc(C4CC4)cc13)CCCC2` [Example 205, N-(5-Cyclopropylbenzo[d]isoxazol-3-yl)-3-methoxy-5,6,7,8-tetrahydronaphthalene-2-sulfonamide] the same measures were 3.44 µM, 0.936 µM, 0.115 µM and 3.73 µM.
For the molecule `COc1cc(CNC(C)=O)cc(OC)c1S(=O)(=O)Nc1noc2cccc(OC)c12` [Example 211, N-(3,5-Dimethoxy-4-(N-(4-methoxybenzo[d]isoxazol-3-yl)sulfamoyl)benzyl)acetamide], the IC50 was 29.5 µM at MOF-KAT8; 0.917 µM at HBO-KAT7; 2.13 µM against MOZ-KAT6A; 7.93 µM against TIP60-KAT5; over 40 µM in assay [1].
On to `COc1cccc(F)c1S(=O)(=O)Nc1noc2cccc(OC)c12` [Example 212, 2-Fluoro-6-methoxy-N-(4-methoxybenzo[d]isoxazol-3-yl)benzenesulfonamide], for which the IC50 turned out to be 1.05 µM against HBO-KAT7, 2.12 µM at MOZ-KAT6A, 9.3 µM at TIP60-KAT5 and 10.3 µM in assay [1].
For the molecule `CNc1cccc(OC)c1S(=O)(=O)Nc1noc2cccc(OC)c12` [Example 214, 2-Methoxy-N-(4-methoxybenzo[d]isoxazol-3-yl)-6-(methylamino)benzenesulfonamide], the IC50 against MOF-KAT8 is over 125 µM; at HBO-KAT7, over 125 µM; against MOZ-KAT6A, 36.4 µM; at TIP60-KAT5, over 125 µM.
Consider `COc1cc(COc2cccc(OC)c2S(=O)(=O)Nc2noc3cccc(OC)c23)ccn1` [Example 216, 2-Methoxy-N-(4-methoxybenzo[d]isoxazol-3-yl)-6-((2-methoxypyridin-4-yl)methoxy)benzenesulfonamide], for which the IC50 against MOF-KAT8 is 11.2 µM; at HBO-KAT7, 3.11 µM; on MOZ-KAT6A, 0.625 µM; on TIP60-KAT5, 124 µM.
On to `CCOc1cccc(OC)c1S(=O)(=O)Nc1noc2cccc(OC)c12` [Example 218, 2-Ethoxy-6-methoxy-N-(4-methoxybenzo[d]isoxazol-3-yl)benzenesulfonamide], for which the IC50 at HBO-KAT7 was 6.44 µM; against MOZ-KAT6A, 6.59 µM; on TIP60-KAT5 it was over 125 µM; in assay [1] it was over 40 µM.
For the molecule `COc1cccc(OCC(N)=O)c1S(=O)(=O)Nc1noc2cccc(OC)c12` [Example 219, 2-(3-Methoxy-2-(N-(4-methoxybenzo[d]isoxazol-3-yl)sulfamoyl)phenoxy)acetamide], the IC50 against MOF-KAT8 is 69.9 µM; against HBO-KAT7, 60.7 µM; on MOZ-KAT6A it was 33.3 µM; against TIP60-KAT5, over 125 µM.
The corresponding values for `COc1cccc(OCc2cnn(C)c2)c1S(=O)(=O)Nc1noc2cccc(OC)c12` [Example 221, 2-Methoxy-N-(4-methoxybenzo[d]isoxazol-3-yl)-6-((1-methyl-1H-pyrazol-4-yl)methoxy)benzenesulfonamide] are 27.9 µM, 63.7 µM, 37.5 µM and over 125 µM.
For `COc1cccc(OC)c1S(=O)(=O)Nc1noc2cccc([N+](=O)[O-])c12` [Example 223, 2,6-Dimethoxy-N-(4-nitrobenzo[d]isoxazol-3-yl)benzenesulfonamide], the IC50 against MOF-KAT8 is 42.4 µM; against HBO-KAT7, 43.5 µM; against MOZ-KAT6A it was 25.5 µM; against TIP60-KAT5 it was over 125 µM.
The corresponding values for `COc1cccc(OC)c1S(=O)(=O)Nc1noc2cccc(N)c12` [Example 224] are 113 µM, over 125 µM, 50.4 µM and over 125 µM.
On to `CCc1ccc(OC)c(S(=O)(=O)Nc2noc3ccc(C)cc23)c1` [Example 234, 5-Ethyl-2-methoxy-N-(5-methylbenzo[d]isoxazol-3-yl)benzenesulfonamide], for which the IC50 against HBO-KAT7 is 3.74 µM; against MOZ-KAT6A it was 0.381 µM; against TIP60-KAT5 it was 10.9 µM; in assay [2] it was over 40 µM.

By IC50 is commonly meant the concentration at which inhibition is half-maximal.
